According to publication PMC3701070 (PLoS ONE, 2013):

How the values were obtained:
[1] = tested on: pMEK and pERK in HCT-116 (wild-type BRAF, mutant KRAS) cells; assay: Western blot, paradoxical MAPK activation in HCT-116 cells; format: cell-based, human; details: 100 or 300 nM dabrafenib, co-treatment with 50 nM or 5 nM trametinib, 1 h
Protocol: Cells were lysed in 25 mM Tris-HCl pH 7.5, 2 mM EDTA, 2 mM EGTA, 1% Triton X-100, 0.1% SDS, 50 mM sodium-β-glycerophosphate, 2 mM Na3VO4, 12.5 mM sodium pyrophosphate, 2× Complete EDTA-free mini protease inhibitor tablets (Roche), 2× phosphatase inhibitor cocktails I and II (Sigma-Aldrich). Protein concentrations were determined by Bio-Rad DC™ or dye-based protein assays and lysates were resolved by SDS-PAGE (Invitrogen NuPAGE®) and transferred to PVDF membranes. Membranes were blocked with Odyssey® (LI-COR Biosciences) blocking buffer and incubated with primary antibodies overnight at 4°C. Blots were washed with PBS containing 0.1% Tween-20, incubated with secondary antibodies, and washed again prior to signal detection on a LI-COR Odyssey® reader.
Lysates were immunoblotted for total ERK (tERK) and dual-phosphorylated ERK (ppERK) (B).

[2] = tested on: HCT-116; design: method as in PMID 21245089; details: HCT-116 cells; read-out: gIC50; cited from earlier work

CC(=O)Nc1cccc(-n2c(=O)n(C3CC3)c(=O)c3c(Nc4ccc(I)cc4F)n(C)c(=O)c(C)c32)c1 [trametinib, reference compound]
effect on dabrafenib-induced pERK upregulation [1]: abolished | IC50 [2]: 21 nM
